The values that follow come from EP0604354B1, “Antidepressant and antiparkinsonian compounds” (N[…]/S, priority 1992, dated 1994).

Data set [1] addresses T1, reuptake of dopamine in synaptosomes of rat forebrain (Rattus norvegicus, UniProt P23977).
T1 construct: Fresh whole forebrain (at 0-4°C) from male Wistar rats (150-200 g) is homogenized; from tissue; host or cells: male Wistar rat whole forebrain, crude synaptosomal supernatant
Kind of data set: inhibition of reuptake of 3H-dopamine in synaptosomes of rat forebrain. In kind it is biochemical.
Experimental: Fresh whole forebrain (at 0-4°C) from male Wistar rats (150-200 g) is homogenized in a glass homogenizer with a teflon pestle in 20 x volumes 0.32M sucrose. The homogenate is centrifuged at 1000 x g (∼ 2900 rpm) for 10 min. The pellet is discarded and the supernatant is used for uptake assays.
A Krebs Buffer (119 mM NaCI, 24 mM NaHCO3, 2.1 mM KCI, 1.2 mM KH2PO4, 1.8 mM CaCl2, 2 mM MgSO4, 7H2O, 12 mM glucose) is equilibrated with an atmosphere of 96% O2: 4% CO2 for at least 60 min at 37°C. To 5 ml Krebs-buffer 100 µl of the radioactivity is added (3H-dopamine 1 x 10^-9M final concentration) and 100 µl test substance solution and 200 µl of tissue suspension. The samples are thoroughly mixed and incubated 10 min at 37°C followed by 2 min at 0°C. After incubation the samples are poured directly onto Whatman GF/C glass fibre filters under suction and immediately washed with 2 x 5 ml ice-cold 0.9% saline (NaCI) buffer. To the filter is added 3 ml of scintillation fluid, and the amount of radioactivity on the filters is determined by conventional liquid scintillation counting.

Data set [2] relates to haloperidol-induced catalepsy. Kind of data set: catalepsy test for antiparkinsonian effects (antagonism of haloperidol-induced catalepsy). Type of data set: in vivo. Particulars: rat, given perorally 1 h before haloperidol 0.25 mg/kg s.c.; read-out: Minimum effective dose (peroral administration).
Text: The day before testing, the rats weighing 200-250 g are housed 2 and 2 together in standard macrolon cages. […] The testing for the immobile catalepsy syndrome includes 4 tests performed in the following consecutive order: • 1) a vertical wire netting (40x40 cm high).The meshes (openings) of the nettings are approximately 1x2cm. • 2) a horizontal bar 9 cm above the floor • 3) a 9 cm high block (bar) • 4) a 3 cm high block (cork)
The rats were scored for the immobile cataleptic syndrome every 15 min in all 4 tests starting 15 min after the haloperidol injection. The intensity of catalepsy was tested during 10 sec in all tests and evaluated according to a criteria of 10 sec of total immobility for a score of 2.
The rat was placed in the middle of the vertical wire netting, then on the horizontal bar in an extended position with support by both the forelegs on the bar. The rats were then tested, whether or not they were willing to sit with the left or right forelegs placed first on the 9 and then on the 3 cm block for a duration of 10 sec. The maximum score for all 4 tests is thus a total of 8.
The subject of data set [3] is rearing and locomotor activities. Put plainly: behavioural excitatory locomotor and rearing responses (gross behaviour rating). In kind it is in vivo. Particulars: rat, 50 mg/kg i.p., maximum peak effect, observed 5-6 hrs.
Experimental: Male SPF wistar rats weighing 200-250g were used for the gross behavioural studies. All rats were transferred the day before the experiments to individual cages made of wire netting (floor area 21 x 27 cm, height 16 cm) at a room temperature of 21-23° C. […] The behavioural elements here classified as rearing (i.e. standing up on the hindlegs) and locomotor activities (i.e. forward running activities) were registered, and the maximum peak effects were classified according to the following rating scale: • 0 = non-existent or very infrequent • + = weak and infrequent • ++ = moderate in intensity and frequency • +++ = very strong, continuous and intense
The degree of locomotor activity was also tested and measured quantitatively in photocell activity cages. For the measurement of this locomotor activity 100 g female rats are used.
The subject of data set [4] is abnormal stereotyped behaviour. Put plainly: abnormal stereotyped behaviour (high intensity stereotypy rating). In kind it is in vivo. The settings on record: rat, 50 mg/kg i.p. An excerpt:
Backward locomotion may occasionally be observed.

Data set [5] deals with dopamine release. Put plainly: dopamine releasing properties (no method given).

The term IC50 denotes the concentration that gives 50% inhibition. The low end stands for greater potency, the high end for weaker potency.

T1 sequence (P23977 whole entry): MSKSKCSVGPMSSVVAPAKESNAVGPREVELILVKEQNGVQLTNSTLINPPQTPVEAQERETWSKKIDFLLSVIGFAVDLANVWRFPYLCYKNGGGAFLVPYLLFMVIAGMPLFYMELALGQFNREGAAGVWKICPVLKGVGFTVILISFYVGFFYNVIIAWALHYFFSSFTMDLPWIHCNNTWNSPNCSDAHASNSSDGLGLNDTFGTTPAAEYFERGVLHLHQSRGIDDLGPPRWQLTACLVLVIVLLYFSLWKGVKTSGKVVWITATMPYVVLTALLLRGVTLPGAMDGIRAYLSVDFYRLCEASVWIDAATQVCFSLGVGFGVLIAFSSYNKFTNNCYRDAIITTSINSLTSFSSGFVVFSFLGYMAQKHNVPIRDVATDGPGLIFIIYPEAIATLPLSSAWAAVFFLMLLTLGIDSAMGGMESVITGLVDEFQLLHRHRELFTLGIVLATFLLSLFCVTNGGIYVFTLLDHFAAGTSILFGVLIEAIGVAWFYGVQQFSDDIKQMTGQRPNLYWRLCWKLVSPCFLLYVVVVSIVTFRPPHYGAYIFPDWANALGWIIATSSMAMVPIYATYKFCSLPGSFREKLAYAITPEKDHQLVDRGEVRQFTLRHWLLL

As to `CN1[C@H]2CC[C@@H]1[C@H](COc1ccc(Cl)cc1)[C@@H](c1ccc(F)cc1)C2.Cl` [(1R,2R,3S)-2-(4-Chlorophenoxy-methyl)-3-(4-fluorophenyl)tropane, hydrochloride], in data set [1], half-maximal inhibition (IC50) was put at 390 nM. For the same compound, the minimal effective dose in data set [2] is under 1 mg/kg. For the same compound, the “Activity (excitatory locomotor and rearing responses)” value in data set [3] was determined as 0. The “Activity (abnormal stereotyped behaviour, high intensity stereotypy)” value in data set [4] worked out at 0.

For the compound `COC(=O)[C@@H]1[C@@H](c2ccc(F)cc2)C[C@@H]2CC[C@H]1N2C` [trans isomer of Win 35,428], in data set [5], the dopamine releasing properties entry was “essentially free of dopamine releasing properties”.
